According to patent US8163939B2, “Ascorbic acid derivative or salt thereof, production method thereof, and cosmetic” (Seikwa Kasei Company, Limited, priority 2007, dated 2012):

Key:
[1] = test system: Normal human dermal fibroblasts; test: Collagen production of human fibroblast (Sircol collagen assay, 100 μM, 48 hours); assay type: cell-based; settings: cultured 48 hours; for Collagen production promoting effect (collagen production amount, % of control group): N=4; for activity at 100 µM: Homo sapiens, Fibroblast, N=4, read-out: Collagen production promoting effect (collagen production amount, % of control group)
Protocol: (§1) Normal human dermal fibroblasts were regulated with a 10% (v/v) fetal bovine serum (manufactured by Roshe Diagnostics)-containing D-MEM so as to give a cell density of 2.5×10^4 cells/well, then, pre-incubation for 24 hours was performed on a 96-well plate. After the medium was removed, a sample regulated with a 5% (v/v) fetal bovine serum-containing D-MEM to a concentration of 100 μM was added to each well, then, cultured for 48 hours under 37° C. and 5% CO2. After completion of culturing, the amount of free collagen was measured using Sircol collagen assay kit (manufactured by Biocolor). The measurement was carried out at N=4.
The collagen production amount in measuring a sample at a concentration of 100 μM was compared with the control group, and the results thereof (% value when the control group is 100%) are shown in Tables 44 and 45 based on the following standard.

B16 melanoma 4A5 cell = test: Whitening test: theophylline-induced melanine production in B16 melanoma 4A5 cells; assay type: cell-based, mouse; settings: sample at a concentration of 100 μM or less; theophylline-induced melanine production; 3 days culture; N=4;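 further: grades: ± under 20% + 20-40% ++ 40-70% +++ 70-100% suppression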
Protocol: As a test for a whitening effect, evaluation of the action of B16 melanoma 4A5 cell on theophylline-induced melanine production was carried out on an ascorbic acid derivative of the present invention, according to the following procedure. The same evaluation was carried out also on ascorbic acid, known compounds: ascorbic acid salts, and ascorbic acid derivatives, as comparison. The results are shown in Tables 38 to 40. • (1) B16 mouse melanoma 4A5 strain was sowed onto a 48-well plate at a cell density of 2.0×10^4 cells/well. • (2) Culturing was performed for 24 hours with Dulbecco's Modified Eagle's medium (manufactured by SIGMA. Hereinafter, abbreviated as D-MEM) containing 10% fetal bovine serum (manufactured by Roshe Diagnostics). Then, it was changed to 0.2 mM theophylline and a 10% fetal bovine serum-containing D-MEM which contains a sample of given concentration. • (3) After culturing for 3 days in the co-existence of a sample, the medium was removed using an aspirator. Then, after distilled water was added, cells were broken by an ultrasonic wave. • (4) Thereafter, the amount of protein was determined using BCA protein assay kit (manufactured by PIERCE), and the produced amount of melanine was measured by an alkali solubilizing method. To the cell-destructed solution was added sodium hydroxide so as to give a final concentration of 2N and the mixture was dissolved by heating (60° C., 15 minutes), then, the absorbance at 450 nm was measured using a micro plate reader. The melanine amount was calculated from a calibration curve made using synthetic melanine (SIGMA) as a standard. The melanine amount per unit protein was calculated by dividing the melanine amount by the protein amount. • (5) The melanine production suppressing rate was calculated according to the following formula. Melanine production suppressing rate (%)=[1−(A−B)/(C−B)]×100 [wherein, A represents the melanine amount per unit protein (g/g) in adding a sample, B represents the melanine amount per unit protein (g/g) in the normal group, and C represents the melanine amount per unit protein (g/g) in the control group.]
In the following Tables, the melanine production suppressing rate in measuring a sample at a concentration of 100 μM or less is expressed as described below. The measurement was carried out at N=4.

[2] = test system: Normal human dermal fibroblasts; test: Collagen production of human fibroblast 2 (100 μM or 500 μM; 2, 4 and 7 days); assay type: cell-based; settings: for Collagen production amount in comparison with the control group (% value when the control group is 100%): 100 μM or 500 μM (not stated which), average ± standard error, N=4
Protocol: as §1
Free collagen was measured under the same conditions as in Test Example 5 excepting that the concentration of each sample was 100 μM or 500 μM and culturing was carried out for 2 days, 4 days and 7 days. The measurement was carried out at N=4, and the average and standard error, in four test examples, of values of the collagen production amount in comparison with the control group (% value when the control group is 100%) are shown in Tables 46 and 47.

[3] = Table 47, culturing period 2 days
[4] = Table 47, culturing period 4 days
[5] = Table 47, culturing period 7 days

Row | Molecule | Collagen production promoting effect (collagen production amount, % of control group) [1] | Whitening effect (melanine production suppressing rate) (B16 melanoma 4A5 cell) | also measured
1 | CCOCC(O)COC1=C(OCC)C(=O)O[C@@H]1[C@@H](O)CO (stereo partly drawn) [Example 66] | + (100 to 200%:+) | + (20 to 40%:+) | 
2 | O=C1O[C@H]([C@@H](O)CO)C(OCC(O)COc2ccccc2)=C1O (stereo partly drawn) [Example 44] | + (100 to 200%:+) |  | 
3 | O=C1OC(C(O)CO)C(OC2CCCCC2O)=C1O (stereo not drawn) [compound 11, 3-O-(2-hydroxycyclohexyl) ascorbic acid] |  | + (20 to 40%:+) | activity at 100 µM [1]: 100 to 200%
4 | O=C1O[C@H]([C@@H](O)CO)C([O-])=C1OP(=O)([O-])[O-].O=C1O[C@H]([C@@H](O)CO)C([O-])=C1OP(=O)([O-])[O-].[Mg+2].[Mg+2].[Mg+2] [magnesium ascorbyl phosphate, reference compound] | + (100 to 200%:+) | ± (<20%:±) | collagen production promoting effect over time (in words) ([2]; 100 μM or 500 μM, culturing 2, 4 and 7 days): lowers over time; Collagen production amount in comparison with the control group (% value when the control group is 100%) ([2]; Table 46, culturing period 2 days): 276 ± 9%; Collagen production amount in comparison with the control group (% value when the control group is 100%) ([2]; Table 46, culturing period 4 days): 207 ± 24%; Collagen production amount in comparison with the control group (% value when the control group is 100%) ([2]; Table 46, culturing period 7 days): 191 ± 2%
5 | 3-O-ethylglyceryl-2-O-butyl ascorbic acid [Example 18] | + (100 to 200%:+) |  | 
6 | O=C1OC(C(O)CO)C(OCC(O)COc2ccccc2)=C1OCC(O)COc1ccccc1 (stereo not drawn) [Example 88, 2,3-di-O-phenylglyceryl ascorbic acid] | + (100 to 200%:+) | ++ (40 to 70%:++) | 
7 | CCCCCCCCCCCCCCCCOCC(O)COC1=C(OCC(O)COCCCCCCCC)C(C(O)CO)OC1=O (stereo not drawn) [Example 92] | + (100 to 200%:+) | ++ (40 to 70%:++) | 
8 | O=C1OC(C(O)CO)C(OCC(O)CO)=C1OCc1ccccc1 (stereo not drawn) [Example 17, 3-O-glyceryl-2-O-benzyl ascorbic acid] |  | + (20 to 40%:+) | activity at 100 µM [1]: 100 to 200%
9 | CCCCCCCCCCCCOCC(O)COC1=C(OCC(O)COCCCC)C(C(O)CO)OC1=O (stereo not drawn) [Example 90] | + (100 to 200%:+) | + (20 to 40%:+) | 
10 | CCCCCCCCC(O)COC1=C(O)C(=O)O[C@@H]1[C@@H](O)CO (stereo partly drawn) [Example 46] | + (100 to 200%:+) | ++ (40 to 70%:++) | Collagen production amount in comparison with the control group (% value when the control group is 100%) [2, 3]: 152 ± 6%; Collagen production amount in comparison with the control group (% value when the control group is 100%) [2, 4]: 123 ± 11%; Collagen production amount in comparison with the control group (% value when the control group is 100%) [2, 5]: 254 ± 10%
11 | CCCCOCC(O)COC1=C(O)[C@@H]([C@@H](O)CO)OC1=O (stereo partly drawn) [Example 48] | + (100 to 200%:+) | +++ (70 to 100%:+++) | 
12 | CCCCCCCCOCC(O)COC1=C(OCC(O)CO)C(C(O)CO)OC1=O (stereo not drawn) [Example 84] | + (100 to 200%:+) | + (20 to 40%:+) | Collagen production amount in comparison with the control group (% value when the control group is 100%) [2, 3]: 135 ± 11%; Collagen production amount in comparison with the control group (% value when the control group is 100%) [2, 4]: 154 ± 8%; Collagen production amount in comparison with the control group (% value when the control group is 100%) [2, 5]: 201 ± 16%
13 | CCCCOC1=C(OCC(O)CO)[C@@H]([C@@H](O)CO)OC1=O (stereo partly drawn) [Example 57] | + (100 to 200%:+) | + (20 to 40%:+) | 
14 | CCCCCCCCC(O)COC1=C(OCC)C(C(O)CO)OC1=O (stereo not drawn) [Example 98] |  | ++ (40 to 70%:++) | 
15 | CCCCOCC(O)COC1=C(OCC)C(C(O)CO)OC1=O (stereo not drawn) [Example 97] | + (100 to 200%:+) | + (20 to 40%:+) | Collagen production amount in comparison with the control group (% value when the control group is 100%) [2, 3]: 93 ± 4%; Collagen production amount in comparison with the control group (% value when the control group is 100%) [2, 4]: 111 ± 4%; Collagen production amount in comparison with the control group (% value when the control group is 100%) [2, 5]: 139 ± 15%
16 | CCCCCCOC1=C(OCC(O)COCCCC)[C@@H]([C@@H](O)CO)OC1=O (stereo partly drawn) [Example 69] |  | +++ (70 to 100%:+++) | 
17 | CCCCCCOC1=C(OCC(O)CO)[C@@H]([C@@H](O)CO)OC1=O (stereo partly drawn) [Example 58] |  | ++ (40 to 70%:++) | 
18 | CCCCCCCCCCOC1=C(OCC(O)CO)[C@@H]([C@@H](O)CO)OC1=O (stereo partly drawn) [Example 61] |  | +++ (70 to 100%:+++) | 
19 | CCCCCCCCCCCCCCCCOC1=C(OCC(O)CO)[C@@H]([C@@H](O)CO)OC1=O (stereo partly drawn) [Example 15, 3-O-glyceryl-2-O-hexadecyl ascorbic acid] |  | ++ (40 to 70%:++) | 
20 | CCCCCCCCC(O)COC1=C(OCC(O)CO)C(=O)OC1C(O)CO (stereo not drawn) [Example 83] | + (100 to 200%:+) | + (20 to 40%:+) | 
21 | CCCCCCCCCCCOC1=C(OCC(O)CO)[C@@H]([C@@H](O)CO)OC1=O (stereo partly drawn) [Example 62] |  | ++ (40 to 70%:++) | 
22 | 3-O-(2-hydroxydecyl)-2-O-butylglyceryl ascorbic acid [Example 28] | + (100 to 200%:+) | ++ (40 to 70%:++) | 
23 | CCCCCCCCC(O)COC1=C(OCC(O)CO)[C@@H]([C@@H](O)CO)OC1=O (stereo partly drawn) [Example 29, 3-O-glyceryl-2-O-(2-hydroxydecyl) ascorbic acid] |  | + (20 to 40%:+) | activity at 100 µM [1]: 100 to 200%; Collagen production amount in comparison with the control group (% value when the control group is 100%) [2, 3]: 97 ± 19%; Collagen production amount in comparison with the control group (% value when the control group is 100%) [2, 4]: 116 ± 7%; Collagen production amount in comparison with the control group (% value when the control group is 100%) [2, 5]: 138 ± 3%
